Results on five molecules are retold here after ChEMBL document CHEMBL5120954, “Novel MRGX2 Antagonists for Treating Diseases” (ACS Med Chem Lett, 2022).

As a reminder, the IC50 is the concentration that inhibits the measured activity by half.

Each structure is given as a SMILES string.

For this experiment, the target named is T1, Mas-related G-protein coupled receptor member X2 (Homo sapiens, UniProt Q96LB1).
T1 sequence (Q96LB1 whole entry): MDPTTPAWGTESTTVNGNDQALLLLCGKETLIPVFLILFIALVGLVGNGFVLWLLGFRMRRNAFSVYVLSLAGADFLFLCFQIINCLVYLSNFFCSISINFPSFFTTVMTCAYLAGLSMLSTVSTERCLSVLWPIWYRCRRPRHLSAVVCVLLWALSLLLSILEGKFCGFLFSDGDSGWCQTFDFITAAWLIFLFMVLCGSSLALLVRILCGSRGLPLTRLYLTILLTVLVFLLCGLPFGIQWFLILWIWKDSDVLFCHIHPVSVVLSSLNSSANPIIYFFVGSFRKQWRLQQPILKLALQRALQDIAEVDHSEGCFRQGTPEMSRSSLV
The experiment is described as follows: Antagonist activity at human MRGPRX2 expressed in HEK293 cells co-expressing mouse Galpha15 assessed as inhibition of Cortistatin-14 induced Ca2+ mobilization preincubated for 30 mins followed by Cortistatin-14 addition by FLIPRtetra-calcium mobilization assay. Format: functional, cell-based. For orientation: Calcium flux is commonly read through the fluorescence of an indicator in the cells.
For the molecule `CC(C(=O)Nc1ccc(Oc2cnc(F)cc2Cl)cn1)N1CCC(F)(F)[C@@H](c2ccc(=O)[nH]c2)C1` (stereo not given in full), the half-inhibitory concentration (IC50) is at most 10 nM.
For the molecule `CC(C(=O)Nc1ccc(Oc2ccc(F)cc2)cn1)C1CCC(F)(F)C(c2ccc(=O)[nH]c2)C1` (stereo not given), the IC50 was at most 10 nM.
For `CC(C(=O)Nc1ccc(Oc2ccccc2)cn1)N1CCC(F)(F)[C@@H](c2c[nH]c(=O)c(CN)c2)C1` (stereo not given in full), the IC50 is at most 10 nM.
The figure for `CC(C(=O)Nc1ccc(Oc2ccc(F)cc2)cn1)N1CCC(F)(F)C(c2c[nH]c(=O)c(CNCCO)c2)C1` (stereo not given) is at most 10 nM; for `C[C@@H](C(=O)Nc1ccc(Oc2ccc(F)cc2F)cn1)N1CCC(F)(F)[C@@H](c2c[nH]c(=O)c(CS(C)(=O)=O)c2)C1` it is at most 10 nM.
